According to patent publication US20250228865A1, “COMPOUNDS FOR ENHANCING READ THROUGH OF GENES CONTAINING PREMATURE TERMINATION CODONS AND METHODS FOR MAKING AND USING THE SAME” (Sanofi US Services Inc., priority 2022, published 2025):

What was measured:
[1] = tested on: recombinant human CFTR carrying the premature stop codon (PTC) mutation G542X; test: CFTR-PTC mutant translation readthrough, Nanoluc tagged CFTR luminescence (G542X cell line); type: cell-based; conditions: in combination with G418, G542X cell line; for CFTR G542X ACTIVITY Fold 10 μM G-418: fold over 10 μM G-418; for EC50: 16HBE cells
Description: (§1) 16HBE human bronchial epithelial cells (stably over-expressing recombinant human CFTR carrying the premature stop codon (PTC) mutation G542X or R1162X along with a Nanoluc tag incorporated into the CFTR channel within extracellular loop 4 in G542X cell line or C-terminus end in the R1162X cell line were seeded at 0.01×10^6 cells/well and grown in Minimal Essential Medium (MEM) as monolayers in 384 well plates and incubated at 37° C. with 5% CO2. Media was changed every other day until day of experiment. Agents to be evaluated were made up in separate 384 well, polypropylene plates at a 2X the final desired test concentration. Test agent 10-point concentration response curves were constructed using the Labcyte Echo 555 acoustic dispenser. Test agents were typically tested at a max final test concentrations of 50 μM with sequential 2-fold lower concentrations below this in the absence or presence of a fixed 10 μM concentration of the aminoglycoside G418 made up in MEM growth media (reduced Serum Media+HEPES Buffer+2.4 g/L Sodium Bicarbonate+L-Glutamine containing CFTR corrector VX-809 (3 μM)). Treatment with 10 μM G418 alone produced approximately 10% of the response observed with a maximally effective concentration of G418 (typically 125-250 μM). Test agent effects in presence of 10 μM G418 were compared to control wells on the plate containing a maximally effective concentration of G418 (typically 125-250 μM) made up in the same media. 25 ul of test agents/control solutions were transferred from the compound plate to the cell plate, which already contained 25 ul/well of cell plating media, using an Integra Viaflo 384. Cell plates were incubated with the compounds for 48 hours, at which time they were processed using Nanoluc luminescence Kit (Promega Nano-Glo Live Cell Assay System) to measure CFTR-PTC mutant translation readthrough. Luminescence was measured as follows. Cell plates were removed from the incubator and allowed to equilibrate to room temperature for 20 minutes. Media was removed from all wells and the plates were blotted to remove excess remaining volume. Nano-Glo Live Cell Substrate was diluted 1:20 in the appropriate amount of Nano-Glo LCS Dilution Buffer to accommodate the number of cell plates being tested. The substrate/dilution buffer mix was then diluted 1:3 with MEM media to make the appropriate volume for the number of plates being tested. The substrate/dilution buffer/OptiMEM mix was added across the Nanoluc testing cell plates and the plates were read for luminescence signal immediately. Test agent effects on CFTR translation readthrough was determined by normalizing any observed increase in luminescence induced by 48 hours pretreatment with test compound to the magnitude of luminescence increase produced by pretreatment with a maximally effective concentration of the reference readthrough enhancing agent G418 (125-250 μM).

[2] = tested on: recombinant human CFTR carrying the premature stop codon (PTC) mutation R1162X; test: CFTR-PTC mutant translation readthrough, Nanoluc tagged CFTR luminescence (R1162X cell line); type: cell-based; conditions: for CFTR R1162X ACTIVITY Fold 10 μM G-418: fold over 10 μM G-418, in combination with G418; for EC50: in combination with G418, 16HBE cells, read-out: CFTR R1162X ACTIVITY EC50
Description: as §1

Compound | EC50 [1] | EC50 [2] | CFTR G542X ACTIVITY Fold 10 μM G-418 [1] | CFTR R1162X ACTIVITY Fold 10 μM G-418 [2]
O=CN[C@@H](CO)C(=O)Nc1ccc(OCc2c(Cl)cccc2Cl)cn1 | > 10000 nM | > 10000 nM | – | B′ (B′ = ≥5X to <10X)
Cc1cccc(C(F)(F)F)c1COc1cnc(N2CC(=O)N(C)C2=O)nc1 | 1000 to 10000 nM | 1000 to 10000 nM | A′ (A′ = ≥10X) | A′ (A′ = ≥10X)
O[C@@H]1CN(c2ncc(OCc3c(Cl)cccc3Cl)cn2)C[C@@H]1O [(3R,4S)-1-[5-[(2,6-dichlorophenyl)methoxy]pyrimidin-2-yl]pyrrolidine-3,4-diol] | 1000 to 10000 nM | > 10000 nM | A′ (A′ = ≥10X) | A′ (A′ = ≥10X)
O=C1OC(CO)CN1c1ncc(OCc2c(Cl)cccc2C(F)(F)F)cn1 (stereo not shown) | 1000 to 10000 nM | 1000 to 10000 nM | A′ (A′ = ≥10X) | A′ (A′ = ≥10X)
O=C(O)C1CCCN(c2ncc(OCc3c(Cl)cccc3C(F)(F)F)cn2)C1 (stereo not shown) [1-(5-{[2-chloro-6-(trifluoromethyl)phenyl]methoxy]pyrimidin-] | 1000 to 10000 nM | > 10000 nM | – | –
Cc1cccc(OC(F)F)c1COc1ccc(-n2cnc(CO)n2)cc1 | 1000 to 10000 nM | 1000 to 10000 nM | B′ (B′ = ≥5X to <10X) | B′ (B′ = ≥5X to <10X)
O=C1OC(CO)CN1c1ccc(OCc2c(Cl)cccc2Cl)c(F)c1 (stereo not shown) | 1000 to 10000 nM | 1000 to 10000 nM | B′ (B′ = ≥5X to <10X) | C′ (C′ = <5X)
Cc1cccc(C(F)(F)F)c1COc1cnc(N2CCS(=O)(=O)C(CO)C2)nc1 (stereo not shown) [2-(hydroxymethyl)-4-(5-{[2-methyl-6-(trifluoromethyl)phenyl]] | 1000 to 10000 nM | 1000 to 10000 nM | C′ (C′ = <5X) | –

More lines, main results first:

EC50 [1] | EC50 [2] | Compound | CFTR G542X ACTIVITY Fold 10 μM G-418 [1] | CFTR R1162X ACTIVITY Fold 10 μM G-418 [2]
1000 to 10000 nM | > 10000 nM | O=C(O)C1CN(c2ccc(OCc3c(Cl)cccc3C(F)(F)F)cn2)CCO1 (stereo not shown) | C′ (C′ = <5X) | C′ (C′ = <5X)
1000 to 10000 nM | 1000 to 10000 nM | Cc1cccc(C(C)(F)F)c1COc1ccc(-n2cc(CO)nn2)cc1 | B′ (B′ = ≥5X to <10X) | B′ (B′ = ≥5X to <10X)
1000 to 10000 nM | 1000 to 10000 nM | O=C1CCC(=O)N1c1ccc(OCc2c(Cl)cccc2Cl)cc1 [1-[4-[(2,6-dichlorophenyl)methoxy]phenyl]pyrrolidine-2,5-dione] | A′ (A′ = ≥10X) | B′ (B′ = ≥5X to <10X)
1000 to 10000 nM | > 10000 nM | O=C1OC(CO)CN1c1ccc(OCc2c(Cl)cccc2OC(F)F)cc1 (stereo not shown) | C′ (C′ = <5X) | B′ (B′ = ≥5X to <10X)
< 1000 nM | < 1000 nM | Cc1cccc(C(F)(F)F)c1COc1cnc(-n2ccc(CO)n2)nc1 | A′ (A′ = ≥10X) | A′ (A′ = ≥10X)
< 1000 nM | < 1000 nM | Cc1cccc(C(F)(F)F)c1COc1cnc(N2CCN3C(=O)COCC3C2)nc1 (stereo not shown) | A′ (A′ = ≥10X) | A′ (A′ = ≥10X)
< 1000 nM | < 1000 nM | OCC1CN(c2ncc(OCc3c(Cl)cccc3C3CC3)cn2)CCO1 (stereo not shown) | A′ (A′ = ≥10X) | A′ (A′ = ≥10X)
< 1000 nM | 1000 to 10000 nM | OCc1cc(-c2ccc(OCc3c(Cl)cccc3Cl)cn2)no1 [[3-[5-[(2,6-dichlorophenyl)methoxy]-2-pyridyl]isoxazol-5-yl]methanol] | A′ (A′ = ≥10X) | A′ (A′ = ≥10X)
< 1000 nM | < 1000 nM | Cc1cccc(C(F)(F)F)c1COc1cnc(N2CCO[C@H](CO)C2)nc1 | A′ (A′ = ≥10X) | A′ (A′ = ≥10X)
